In article PMC3770298 (ACS medicinal chemistry letters, 2013):
Each block holds one compound with its values, some of them ahead of it.

Key:
RORγ = molecular target: T1, RORγ (Mus musculus, UniProt P51450); assay: cell-based RORγ gene reporter assay; conditions: for IC50 (μM) (RORγ): Table 1, region A, mean of four replicates from two independent experiments
T1 sequence (P51450 1-516): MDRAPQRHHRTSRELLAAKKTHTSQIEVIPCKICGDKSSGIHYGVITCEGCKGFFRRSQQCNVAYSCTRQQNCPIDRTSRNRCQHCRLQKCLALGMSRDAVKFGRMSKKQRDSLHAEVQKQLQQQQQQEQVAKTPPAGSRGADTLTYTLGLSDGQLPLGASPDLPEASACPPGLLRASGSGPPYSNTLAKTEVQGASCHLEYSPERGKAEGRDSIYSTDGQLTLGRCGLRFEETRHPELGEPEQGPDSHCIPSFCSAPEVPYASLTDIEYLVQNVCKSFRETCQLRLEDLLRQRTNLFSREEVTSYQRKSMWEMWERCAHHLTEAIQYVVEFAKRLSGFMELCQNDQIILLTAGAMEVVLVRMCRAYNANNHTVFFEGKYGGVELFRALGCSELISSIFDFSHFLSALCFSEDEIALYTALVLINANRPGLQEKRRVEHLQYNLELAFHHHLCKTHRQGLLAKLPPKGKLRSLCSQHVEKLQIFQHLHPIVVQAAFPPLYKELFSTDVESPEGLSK

[1] = molecular target: T2, RORγ ligand binding domain (LBD) (Homo sapiens, UniProt P51449); assay: fluoroprobe; conditions: competition assay
T2 sequence (P51449 269-508 limits assumed): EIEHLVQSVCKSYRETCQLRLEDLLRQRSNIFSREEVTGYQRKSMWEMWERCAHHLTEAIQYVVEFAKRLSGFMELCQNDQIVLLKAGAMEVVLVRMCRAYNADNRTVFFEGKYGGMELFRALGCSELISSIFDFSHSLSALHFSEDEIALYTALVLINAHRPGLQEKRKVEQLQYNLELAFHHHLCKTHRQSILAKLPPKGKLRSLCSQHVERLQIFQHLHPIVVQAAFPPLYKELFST

VP16 = type: cell-based; conditions: up to 96 μM
RORα = molecular target: T3, RORα (Mus musculus, UniProt P51448); assay: RORα gene reporter assay; type: cell-based; conditions: up to 96 μM
T3 sequence (P51448 1-523): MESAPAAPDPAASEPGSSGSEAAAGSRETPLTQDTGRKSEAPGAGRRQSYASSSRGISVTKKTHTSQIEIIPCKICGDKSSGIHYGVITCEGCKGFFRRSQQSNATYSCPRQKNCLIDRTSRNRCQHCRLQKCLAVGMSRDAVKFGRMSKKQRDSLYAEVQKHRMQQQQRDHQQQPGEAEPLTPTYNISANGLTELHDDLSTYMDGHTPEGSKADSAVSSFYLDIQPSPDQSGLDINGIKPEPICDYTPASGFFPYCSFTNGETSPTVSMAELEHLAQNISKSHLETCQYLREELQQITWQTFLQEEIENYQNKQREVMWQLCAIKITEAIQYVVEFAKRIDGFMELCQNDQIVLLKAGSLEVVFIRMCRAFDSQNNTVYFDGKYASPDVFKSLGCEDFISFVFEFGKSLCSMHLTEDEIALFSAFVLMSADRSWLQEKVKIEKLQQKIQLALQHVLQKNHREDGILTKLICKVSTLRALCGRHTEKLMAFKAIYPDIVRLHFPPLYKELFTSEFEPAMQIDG

DHR3 = molecular target: T4, DHR3 (Drosophila melanogaster, UniProt P31396); assay: DHR3 gene reporter assay; type: cell-based; conditions: up to 96 μM
T4 sequence (P31396 1-487): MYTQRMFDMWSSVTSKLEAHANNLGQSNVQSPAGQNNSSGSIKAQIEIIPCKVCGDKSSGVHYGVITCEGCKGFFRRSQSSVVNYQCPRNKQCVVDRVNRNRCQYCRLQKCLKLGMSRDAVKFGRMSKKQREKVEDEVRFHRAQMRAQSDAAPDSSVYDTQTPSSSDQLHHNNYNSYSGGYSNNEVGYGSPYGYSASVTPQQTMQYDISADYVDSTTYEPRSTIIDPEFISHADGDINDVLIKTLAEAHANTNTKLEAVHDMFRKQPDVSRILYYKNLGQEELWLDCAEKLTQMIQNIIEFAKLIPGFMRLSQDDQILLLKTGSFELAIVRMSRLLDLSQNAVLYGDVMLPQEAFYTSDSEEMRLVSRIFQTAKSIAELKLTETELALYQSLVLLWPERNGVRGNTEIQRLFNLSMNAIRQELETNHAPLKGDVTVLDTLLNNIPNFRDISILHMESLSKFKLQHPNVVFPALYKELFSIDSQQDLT

[2] = system: mouse TH17 cell differentiation; assay: mouse TH17 cell differentiation; type: cell-based; conditions: read-out: inhibition of mouse TH17 cell differentiation
Th1 cell differentiation = assay: Th1 cell differentiation; type: cell-based, mouse; conditions: 20 μM; data not shown

IC50 (μM) (RORγ) (RORγ): inactive
SMILES: COc1cc(O)c(C(CC(=O)N2C[C@@H](C)N[C@@H](C)C2)c2ccc3c(c2)OCO3)c(OC)c1 (stereo partly drawn) [Compound 4m]

IC50 (μM) (RORγ) (RORγ): inactive | displacement of hydroxycholesterol from RORγ LBD [1]: failed to displace
SMILES: COc1cc(O)c(C(CC(=O)N2CCOCC2)c2ccc3c(c2)OCO3)c(OC)c1 (stereo not drawn) [Compound 4k]

SMILES: C[C@H]1O[C@@H](O[C@H]2[C@@H](O)C[C@H](O[C@H]3[C@@H](O)C[C@H](O[C@H]4CC[C@@]5(C)[C@H](CC[C@@H]6[C@@H]5C[C@@H](O)[C@]5(C)[C@@H](C7=CC(=O)OC7)CC[C@]65O)C4)O[C@@H]3C)O[C@@H]2C)C[C@H](O)[C@@H]1O [Digoxin, reference compound]
result in qHTS for RORγ antagonists (RORγ; qHTS of 310,000 compounds with VP16 counterscreen): selective antagonists

SMILES: COc1cc(O)c(C(CC(=O)N2CCCC(C)C2)c2ccc3c(c2)OCO3)c(OC)c1 (stereo not drawn) [Compound 4a]
activity in the VP16 assay (VP16): no activity | activity in the RORα assay (RORα): no activity | activity in the DHR3 assay (DHR3): no activity | inhibition at 20 µM [2]: 84% | effect on Th1 cell differentiation (Th1 cell differentiation): no effect
